From patent US10189845B2, “4,6-substituted-pyrazolo[1,5-a]pyrazines as janus kinase inhibitors” (ARRAY BIOPHARMA INC., priority 2014, dated 2019)
Where a name gives a salt, the structure may show the parent alone. Read-outs that look alike come from different tables or passages of the source.

What was measured:
Assay type in all cases: biochemical
Human Tyk2 kinase domain = Human Tyk2 kinase domain (Homo sapiens (Human), UniProt P29597); assay: Tyk2 Inhibition Assay (Example A, Omnia kinase fluorescence peptide substrate assay); settings: TYK2 Enzyme IC50 1 mM ATP, averaged IC50 ranges
Chain of Human Tyk2 kinase domain (P29597 886-1187): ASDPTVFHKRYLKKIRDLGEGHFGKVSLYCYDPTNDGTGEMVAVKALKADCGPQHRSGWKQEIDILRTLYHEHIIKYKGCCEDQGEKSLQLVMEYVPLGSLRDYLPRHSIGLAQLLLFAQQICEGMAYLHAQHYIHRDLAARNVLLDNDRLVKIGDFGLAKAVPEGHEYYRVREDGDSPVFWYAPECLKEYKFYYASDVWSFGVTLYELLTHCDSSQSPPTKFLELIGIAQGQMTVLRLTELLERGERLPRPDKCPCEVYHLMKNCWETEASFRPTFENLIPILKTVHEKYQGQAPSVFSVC
Procedure, shortened: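 Omnia Sox-peptide kinetic fluorescence assay (ex 360/em 485 nm, read every 50 s for 45 min) with 1 nM human Tyk2 kinase domain (aa 886–1187, His tag cleaved, baculovirus-expressed), 1 mM ATP, 8 μM Omnia Y12 peptide, in 25 mM HEPES pH 7.4, 10 mM MgCl2, 0.01% Triton X-100, 1 mM DTT, 2% DMSO. IC50 from 4-parameter logistic fit of percent of control.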

JAK1 = JAK1 (Homo sapiens (Human), UniProt P23458); assay: JAK1 Inhibition Assay (Example B, Omnia kinase fluorescence peptide substrate assay)
Chain of JAK1 (P23458 whole entry): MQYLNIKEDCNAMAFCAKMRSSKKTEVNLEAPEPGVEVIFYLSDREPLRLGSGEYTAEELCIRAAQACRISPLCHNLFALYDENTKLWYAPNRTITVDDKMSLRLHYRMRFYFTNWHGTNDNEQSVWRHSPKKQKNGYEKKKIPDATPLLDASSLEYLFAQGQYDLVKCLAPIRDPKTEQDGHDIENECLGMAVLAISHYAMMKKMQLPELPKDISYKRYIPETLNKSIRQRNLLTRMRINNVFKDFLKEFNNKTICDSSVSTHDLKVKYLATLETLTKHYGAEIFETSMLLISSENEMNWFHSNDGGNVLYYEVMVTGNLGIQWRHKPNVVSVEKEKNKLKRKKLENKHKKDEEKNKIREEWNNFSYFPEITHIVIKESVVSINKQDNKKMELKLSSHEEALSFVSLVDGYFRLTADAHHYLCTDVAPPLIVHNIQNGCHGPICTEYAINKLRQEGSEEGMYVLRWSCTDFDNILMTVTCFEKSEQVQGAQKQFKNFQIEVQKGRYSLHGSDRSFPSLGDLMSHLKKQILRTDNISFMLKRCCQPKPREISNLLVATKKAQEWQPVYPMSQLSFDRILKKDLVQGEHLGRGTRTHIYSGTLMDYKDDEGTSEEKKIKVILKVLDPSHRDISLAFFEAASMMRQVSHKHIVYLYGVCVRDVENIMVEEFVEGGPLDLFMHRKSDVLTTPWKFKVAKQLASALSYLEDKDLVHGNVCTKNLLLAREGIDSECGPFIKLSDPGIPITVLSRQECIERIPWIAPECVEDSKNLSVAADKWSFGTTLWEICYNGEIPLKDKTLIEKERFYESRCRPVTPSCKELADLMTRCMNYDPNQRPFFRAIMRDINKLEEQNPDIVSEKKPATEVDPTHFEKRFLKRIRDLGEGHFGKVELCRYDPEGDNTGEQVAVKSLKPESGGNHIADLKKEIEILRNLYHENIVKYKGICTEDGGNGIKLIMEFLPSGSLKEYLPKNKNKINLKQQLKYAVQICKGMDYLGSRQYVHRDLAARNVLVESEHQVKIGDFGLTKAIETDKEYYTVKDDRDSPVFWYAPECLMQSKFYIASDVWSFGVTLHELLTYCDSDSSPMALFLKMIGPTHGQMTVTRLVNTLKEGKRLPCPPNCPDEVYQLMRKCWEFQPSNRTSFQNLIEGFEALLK
Procedure, shortened: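 Recombinant human JAK1 (12.5 nM) with 1 mM ATP and 8 μM Omnia Y12 Sox-peptide in 25 mM HEPES pH 7.4, 10 mM MgCl2, 0.01% Triton X-100, 1 mM DTT, 2% DMSO final. Phosphorylation read kinetically (ex 360/em 485 nm, 45 min); IC50 from 4-parameter fit of percent of control.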

JAK2 = JAK2 (Homo sapiens (Human), UniProt O60674); assay: JAK2 Inhibition Assay (Example C, Omnia kinase fluorescence peptide substrate assay); settings: JAK2 Enzyme IC50 1 mM ATP, averaged IC50 ranges
Chain of JAK2 (O60674 whole entry): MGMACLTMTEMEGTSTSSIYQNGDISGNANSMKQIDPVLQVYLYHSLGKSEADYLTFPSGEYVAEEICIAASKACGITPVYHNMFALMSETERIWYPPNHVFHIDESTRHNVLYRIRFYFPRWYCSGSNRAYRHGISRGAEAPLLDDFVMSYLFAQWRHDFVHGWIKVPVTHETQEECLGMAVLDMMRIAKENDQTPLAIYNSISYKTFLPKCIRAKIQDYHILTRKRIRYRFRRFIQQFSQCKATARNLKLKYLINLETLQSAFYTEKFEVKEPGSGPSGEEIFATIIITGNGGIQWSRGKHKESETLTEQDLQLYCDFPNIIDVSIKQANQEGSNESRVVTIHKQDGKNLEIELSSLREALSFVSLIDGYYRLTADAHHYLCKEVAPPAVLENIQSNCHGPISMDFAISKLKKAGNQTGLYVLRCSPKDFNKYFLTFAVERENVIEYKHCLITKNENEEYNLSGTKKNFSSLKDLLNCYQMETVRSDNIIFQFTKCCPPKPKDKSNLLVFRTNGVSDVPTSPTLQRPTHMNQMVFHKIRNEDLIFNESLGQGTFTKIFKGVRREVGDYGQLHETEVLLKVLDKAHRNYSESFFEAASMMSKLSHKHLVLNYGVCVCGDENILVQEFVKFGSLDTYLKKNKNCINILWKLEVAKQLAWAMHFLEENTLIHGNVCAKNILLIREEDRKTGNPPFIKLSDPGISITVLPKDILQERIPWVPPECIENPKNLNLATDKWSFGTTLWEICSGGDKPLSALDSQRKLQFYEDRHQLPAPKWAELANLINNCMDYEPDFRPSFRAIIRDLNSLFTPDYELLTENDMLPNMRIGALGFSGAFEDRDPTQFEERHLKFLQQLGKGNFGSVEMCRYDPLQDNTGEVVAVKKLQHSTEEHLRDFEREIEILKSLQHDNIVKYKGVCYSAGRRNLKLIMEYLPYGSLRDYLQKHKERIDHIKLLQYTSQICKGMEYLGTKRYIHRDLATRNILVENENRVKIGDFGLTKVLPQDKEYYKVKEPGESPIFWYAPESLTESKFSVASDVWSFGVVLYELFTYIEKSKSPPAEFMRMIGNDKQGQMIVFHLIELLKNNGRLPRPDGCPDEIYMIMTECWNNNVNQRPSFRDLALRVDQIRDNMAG
Procedure, shortened: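 4 nM JAK2 with 1 mM ATP and 10 μM Omnia Y7 peptide in 25 mM HEPES pH 7.4, 10 mM MgCl2, 0.01% Triton X-100, 1 mM DTT, 2% DMSO. Sox fluorescence (ex 360/em 485 nm) read every 50 s for 45 min; IC50 from 4-parameter fit of percent of control.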

JAK3 = JAK3 (Homo sapiens (Human), UniProt P52333); assay: JAK3 Inhibition Assay (Example D, Omnia kinase fluorescence peptide substrate assay)
Chain of JAK3 (P52333 whole entry): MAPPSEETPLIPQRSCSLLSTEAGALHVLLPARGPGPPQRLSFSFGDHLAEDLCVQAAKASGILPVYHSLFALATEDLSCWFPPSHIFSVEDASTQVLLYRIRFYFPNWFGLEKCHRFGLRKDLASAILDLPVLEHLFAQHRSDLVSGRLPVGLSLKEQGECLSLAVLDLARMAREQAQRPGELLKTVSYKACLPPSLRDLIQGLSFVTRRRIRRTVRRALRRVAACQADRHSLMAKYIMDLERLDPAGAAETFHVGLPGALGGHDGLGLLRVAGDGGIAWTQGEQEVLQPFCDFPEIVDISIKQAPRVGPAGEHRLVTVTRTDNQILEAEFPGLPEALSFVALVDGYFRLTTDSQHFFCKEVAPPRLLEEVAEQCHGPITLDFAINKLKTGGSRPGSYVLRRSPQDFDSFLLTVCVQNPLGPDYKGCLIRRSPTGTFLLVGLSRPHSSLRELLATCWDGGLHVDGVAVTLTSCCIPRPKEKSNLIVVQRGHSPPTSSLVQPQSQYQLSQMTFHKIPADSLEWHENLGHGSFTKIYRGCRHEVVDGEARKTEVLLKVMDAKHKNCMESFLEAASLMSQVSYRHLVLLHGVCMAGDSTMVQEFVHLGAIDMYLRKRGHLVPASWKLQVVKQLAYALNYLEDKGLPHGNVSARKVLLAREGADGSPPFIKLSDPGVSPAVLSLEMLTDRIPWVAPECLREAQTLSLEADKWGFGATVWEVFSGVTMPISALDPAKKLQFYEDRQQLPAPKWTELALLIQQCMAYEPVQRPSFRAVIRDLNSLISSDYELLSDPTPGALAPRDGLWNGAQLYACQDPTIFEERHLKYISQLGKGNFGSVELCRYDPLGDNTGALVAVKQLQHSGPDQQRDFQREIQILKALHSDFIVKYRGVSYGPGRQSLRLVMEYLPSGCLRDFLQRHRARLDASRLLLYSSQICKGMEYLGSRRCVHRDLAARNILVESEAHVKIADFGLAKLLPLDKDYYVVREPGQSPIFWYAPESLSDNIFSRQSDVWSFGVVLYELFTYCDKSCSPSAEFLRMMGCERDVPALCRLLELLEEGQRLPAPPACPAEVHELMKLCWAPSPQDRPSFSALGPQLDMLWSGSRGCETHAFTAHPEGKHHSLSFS
Procedure, shortened: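 Mixture held 2 nM JAK3, 1 mM ATP and 10 μM Omnia Y7 peptide in 25 mM HEPES pH 7.4, 10 mM MgCl2, 0.01% Triton X-100, 1 mM DTT, 2% DMSO final. Sox fluorescence (ex 360/em 485 nm) was read every 50 s for 45 min. IC50 came from a 4-parameter logistic fit of percent of control.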

[1] = JAK1 Enzyme IC50 1 mM ATP, 1 mM ATP, averaged IC50 ranges

| SMILES | IC50 (Human Tyk2 kinase domain) [nM] | IC50 (JAK1) [nM] | IC50 (JAK2) [nM] | IC50 (JAK3) [nM] | IC50 (JAK1; [1]) [nM] |
| --- | --- | --- | --- | --- | --- |
| CCC(CC)n1cc(-c2nc(-c3cnn(C[C@H]4C[C@@H](O)C4)c3)cn3nccc23)cn1 [Example 120, (1s,3s)-3-((4-(4-(1-(pentan-3-yl)-1H-pyrazol-4-yl)pyrazolo[1,5-a]pyrazin-6-yl)-1H-pyrazol-1-yl)methyl)cyclobutanol] | 10 to 100 | 100 to 1000 | 10 to 100 | 1000 to 10000 |  |
| CCC(CC)n1cc(-c2nc(-c3cnn(CCS(C)(=O)=O)c3)cn3nccc23)cn1 [Example 22, 6-(1-(2-(methylsulfonyl)ethyl)-1H-pyrazol-4-yl)-4-(1-(pentan-3-yl)-1H-pyrazol-4-yl)pyrazolo[1,5-a]pyrazine] | 10 to 100 | 100 to 1000 | 10 to 100 | 1000 to 10000 |  |
| CCC(CC)n1cc(-c2nc(-c3cnn(C[C@@H]4CCC(=O)N4)c3)cn3nccc23)cn1 [Example 17, (S)-5-((4-(4-(1-(pentan-3-yl)-1H-pyrazol-4-yl)pyrazolo[1,5-a]pyrazin-6-yl)-1H-pyrazol-1-yl)methyl)pyrrolidin-2-one] | 10 to 100 | 100 to 1000 | 10 to 100 | 1000 to 10000 |  |
| CCC(CC)n1cc(-c2nc(-c3cnn(C[C@@H](O)COC)c3)cn3nccc23)cn1 [Example 107, (R)-1-methoxy-3-(4-(4-(1-(pentan-3-yl)-1H-pyrazol-4-yl)pyrazolo[1,5-a]pyrazin-6-yl)-1H-pyrazol-1-yl)propan-2-ol] | 10 to 100 | 100 to 1000 | 10 to 100 | 1000 to 10000 |  |
| CCC(CC)n1cc(-c2nc(-c3cnn([C@H]4CCC[C@@H]4O)c3)cn3nccc23)cn1 (single isomer, unassigned) [Example 154] | 10 to 100 |  | 10 to 100 | 1000 to 10000 | 100 to 1000 |
| C[C@H](CC(F)(F)F)n1cc(-c2nc(-c3cnn(C[C@@H](O)CO)c3)cn3nccc23)cn1 [Example 194, (R)-3-(4-(4-(1-((R)-4,4,4-trifluorobutan-2-yl)-1H-pyrazol-4-yl)pyrazolo[1,5-a]pyrazin-6-yl)-1H-pyrazol-1-yl)propane-1,2-diol hydrochloride] | 100 to 1000 |  | 100 to 1000 | 1000 to 10000 | 1000 to 10000 |
| CCC(CC)n1cc(-c2nc(-c3cnn(CCN4CC[C@@H](OC)C4)c3)cn3nccc23)cn1 [Example 136, (R)-6-(1-(2-(3-methoxypyrrolidin-1-yl)ethyl)-1H-pyrazol-4-yl)-4-(1-(pentan-3-yl)-1H-pyrazol-4-yl)pyrazolo[1,5-a]pyrazine] | 10 to 100 | 100 to 1000 | 10 to 100 | 1000 to 10000 |  |
| CCC(CC)n1cc(-c2nc(-c3cnn([C@H]4C[C@@H](C(=O)N(C)C)C4)c3)cn3nccc23)cn1 [Example 170, (1s,3s)-N,N-dimethyl-3-(4-(4-(1-(pentan-3-yl)-1H-pyrazol-4-yl)pyrazolo[1,5-a]pyrazin-6-yl)-1H-pyrazol-1-yl)cyclobutanecarboxamide] | 10 to 100 | 100 to 1000 | 10 to 100 | 1000 to 10000 |  |
| CCC(CC(F)(F)F)n1cc(-c2nc(-c3cnn(C(CO)CO)c3)cn3nccc23)cn1 (single isomer, unassigned) [Example 212] | 100 to 1000 | 1000 to 10000 | 100 to 1000 | 1000 to 10000 |  |
| CCC(CC)n1cc(-c2nc(-c3cnn(C[C@@H](O)CO)c3)cn3nccc23)cn1 [Example 54, (R)-3-(4-(4-(1-(pentan-3-yl)-1H-pyrazol-4-yl)pyrazolo[1,5-a]pyrazin-6-yl)-1H-pyrazol-1-yl)propane-1,2-diol] | 10 to 100 |  | 10 to 100 | 1000 to 10000 | 100 to 1000 |
| CCC(CC)n1cc(-c2nc(-c3cnn(C[C@@H](O)CN4CCCC4)c3)cn3nccc23)cn1 [Example 106, (S)-1-(4-(4-(1-(pentan-3-yl)-1H-pyrazol-4-yl)pyrazolo[1,5-a]pyrazin-6-yl)-1H-pyrazol-1-yl)-3-(pyrrolidin-1-yl)propan-2-ol] | 100 to 1000 |  | 100 to 1000 | 1000 to 10000 | 1000 to 10000 |
| CCC(CC)n1cc(-c2nc(-c3cnn(CCCN(C)C)c3)cn3nccc23)cn1 [Example 12, N,N-dimethyl-3-(4-(4-(1-(pentan-3-yl)-1H-pyrazol-4-yl)pyrazolo[1,5-a]pyrazin-6-yl)-1H-pyrazol-1-yl)propan-1-amine] | 100 to 1000 | 1000 to 10000 | 100 to 1000 | 1000 to 10000 |  |
| CCC(CC)n1cc(-c2nc(-c3cnn(C(C)(C)CO)c3)cn3nccc23)cn1 [Example 124, 2-methyl-2-(4-(4-(1-(pentan-3-yl)-1H-pyrazol-4-yl)pyrazolo[1,5-a]pyrazin-6-yl)-1H-pyrazol-1-yl)propan-1-ol] | 10 to 100 | 100 to 1000 | 10 to 100 | 1000 to 10000 |  |
| CCC(CO)n1cc(-c2nc(-c3cnn(C)c3)cn3nccc23)cn1 (stereo not drawn) [Example 45, 2-(4-(6-(1-methyl-1H-pyrazol-4-yl)pyrazolo[1,5-a]pyrazin-4-yl)-1H-pyrazol-1-yl)butan-1-ol] | 1000 to 10000 | 1000 to 10000 | 1000 to 10000 | 1000 to 10000 |  |
| CCC(CC)n1cc(-c2nc(-c3cnn(C[C@H](CN)OC)c3)cn3nccc23)cn1 (single isomer, unassigned) [Example 149] | 10 to 100 | 1000 to 10000 | 10 to 100 | 1000 to 10000 |  |
| CCC(CC)n1cc(-c2nc(-c3cnn(CC(C)(C)CO)c3)cn3nccc23)cn1 [Example 191, 2,2-dimethyl-3-(4-(4-(1-(pentan-3-yl)-1H-pyrazol-4-yl)pyrazolo[1,5-a]pyrazin-6-yl)-1H-pyrazol-1-yl)propan-1-ol] | 10 to 100 |  | 10 to 100 | 1000 to 10000 | 10 to 100 |
| CCC(CC)n1cc(-c2nc(-c3cnn([C@@H](C)[C@@H](C)O)c3)cn3nccc23)cn1 (single isomer, unassigned) [Example 157] | 10 to 100 |  | 10 to 100 | 1000 to 10000 | 100 to 1000 |
| C[C@@H]1CCCC[C@H]1n1cc(-c2nc(-c3cnn(C[C@@H](O)CO)c3)cn3nccc23)cn1 (single isomer, unassigned) [Example 151] | 10 to 100 |  | 10 to 100 | 1000 to 10000 | 100 to 1000 |
| Cn1cc(-c2cn3nccc3c(-c3cnn(C4CCCC4O)c3)n2)cn1 (stereo not drawn) [Example 53, 2-(4-(6-(1-methyl-1H-pyrazol-4-yl)pyrazolo[1,5-a]pyrazin-4-yl)-1H-pyrazol-1-yl)cyclopentanol] | 100 to 1000 | 1000 to 10000 | 100 to 1000 | 1000 to 10000 |  |
| CC(C)C[C@H](C)n1cc(-c2nc(-c3cnn(C(CO)CO)c3)cn3nccc23)cn1 [Example 87, (S)-2-(4-(4-(1-(4-methylpentan-2-yl)-1H-pyrazol-4-yl)pyrazolo[1,5-a]pyrazin-6-yl)-1H-pyrazol-1-yl)propane-1,3-diol] | 100 to 1000 | 1000 to 10000 | 100 to 1000 | 1000 to 10000 |  |
| CCC(CC)n1cc(-c2nc(-c3cnn(C[C@H](N)C(C)(C)O)c3)cn3nccc23)cn1 [Example 183, (S)-3-amino-2-methyl-4-(4-(4-(1-(pentan-3-yl)-1H-pyrazol-4-yl)pyrazolo[1,5-a]pyrazin-6-yl)-1H-pyrazol-1-yl)butan-2-ol] | 10 to 100 | 1000 to 10000 | 10 to 100 | 1000 to 10000 |  |
| CCC(CC)n1cc(-c2nc(-c3cnn(CC4(O)CCN(C(C)=O)CC4)c3)cn3nccc23)cn1 [Example 185, 1-(4-hydroxy-4-((4-(4-(1-(pentan-3-yl)-1H-pyrazol-4-yl)pyrazolo[1,5-a]pyrazin-6-yl)-1H-pyrazol-1-yl)methyl)piperidin-1-yl)ethanone] | 100 to 1000 | 100 to 1000 | 100 to 1000 | 1000 to 10000 |  |
| CC[C@H](C)n1cc(-c2nc(-c3cnn(C[C@@H](O)CO)c3)cn3nccc23)cn1 [Example 68, (R)-3-(4-(4-(1-((S)-sec-butyl)-1H-pyrazol-4-yl)pyrazolo[1,5-a]pyrazin-6-yl)-1H-pyrazol-1-yl)propane-1,2-diol] | 10 to 100 |  | 10 to 100 | 1000 to 10000 | 100 to 1000 |
| CCC(CC)n1cc(-c2nc(-c3cnn(C4CN(C(=O)[C@H](C)O)C4)c3)cn3nccc23)cn1 [Example 173, (S)-2-hydroxy-1-(3-(4-(4-(1-(pentan-3-yl)-1H-pyrazol-4-yl)pyrazolo[1,5-a]pyrazin-6-yl)-1H-pyrazol-1-yl)azetidin-1-yl)propan-1-one] | 10 to 100 | 100 to 1000 | 10 to 100 | 1000 to 10000 |  |
